Source: PubChem BioAssay (NCI)
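Values below derive from 48-hour exposures of cells grown in 96-well plates, with endpoints linearly interpolated between the two concentrations bracketing the appropriate inhibition level. Here, GI50 denotes the concentration required for 50% inhibition of growth. TGI: concentration producing complete growth inhibition.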

How the values were obtained:
Test in all cases: NCI anticancer screen, dose series, 48 h
U251 CNS = system: U251 CNS
NCI/ADR-RES ovarian = system: NCI/ADR-RES ovarian
A549 NSCLC = system: A549 NSCLC
HOP-62 NSCLC = system: HOP-62 NSCLC
IGROV1 ovarian = system: IGROV1 ovarian
HCC-2998 colon = system: HCC-2998 colon
UACC-257 melanoma = system: UACC-257 melanoma
NCI-H522 lung = system: NCI-H522 lung
NCI-H23 lung = system: NCI-H23 lung
MALME-3M melanoma = system: MALME-3M melanoma

Row | Compound | GI50 (U251 CNS) | TGI (U251 CNS) | GI50 (NCI/ADR-RES ovarian) | TGI (NCI/ADR-RES ovarian) | GI50 (A549 NSCLC) | TGI (A549 NSCLC) | GI50 (HOP-62 NSCLC) | TGI (HOP-62 NSCLC) | GI50 (IGROV1 ovarian) | TGI (IGROV1 ovarian) | GI50 (HCC-2998 colon) | TGI (HCC-2998 colon) | GI50 (UACC-257 melanoma) | TGI (UACC-257 melanoma) | GI50 (NCI-H522 lung) | TGI (NCI-H522 lung) | GI50 (NCI-H23 lung) | TGI (NCI-H23 lung) | TGI (MALME-3M melanoma) | GI50 (MALME-3M melanoma)
1 | CN(C)C1CCN(C(=O)c2ccc(NC(=O)Nc3ccc(-c4nc(N5CCOCC5)c5cccn5n4)cc3)cc2)CC1 | 0.0599 µM | 14.4 µM | 59.5 µM | > 100 µM | 0.0649 µM | 12.6 µM | 0.0573 µM | 2.82 µM | 0.0302 µM | 0.211 µM | 0.043 µM | 5.86 µM | 0.204 µM | 0.729 µM | 0.0377 µM | 19.1 µM | 0.102 µM | 17.7 µM | – | –
2 | O=C1N=C2Sc3ccc4ccccc4c3N2C1=O | – | 39.6 µM | – | – | – | 41.2 µM | – | 39.8 µM | – | 57.1 µM | – | 68.7 µM | – | 96.8 µM | – | – | – | 53.3 µM | 47.9 µM | –
3 | CC12CCC(=O)C[C@H]1CCC(OC=O)C2Br (some centres undefined) | – | > 100 µM | – | – | – | > 100 µM | – | > 100 µM | – | > 100 µM | – | > 100 µM | – | > 100 µM | – | > 100 µM | – | > 100 µM | > 100 µM | –
4 | COC(=O)/C(C#N)=C1\N=NNN1c1ccc(OC)cc1 | – | > 100 µM | – | – | – | > 100 µM | – | – | – | > 100 µM | – | > 100 µM | – | > 100 µM | – | > 100 µM | – | > 100 µM | > 100 µM | –
5 | COc1cc(N(CCC#N)CCC#N)ccc1/C(N=Nc1ccc(Cl)cc1)=N/NC(=O)c1cc(Br)ccc1O | 145 µg/mL | > 150 µg/mL | 53.2 µg/mL | > 150 µg/mL | 85.5 µg/mL | > 150 µg/mL | – | – | 54.5 µg/mL | > 150 µg/mL | 33.8 µg/mL | 81.8 µg/mL | > 150 µg/mL | > 150 µg/mL | 56.4 µg/mL | > 150 µg/mL | > 150 µg/mL | > 150 µg/mL | > 150 µg/mL | > 150 µg/mL
6 | C/C(CC(=O)Nc1ccc(C)c(C)c1)=N\N(c1ccccc1)c1ccccc1 | – | 30.5 µM | – | – | – | > 100 µM | – | > 100 µM | – | > 100 µM | – | > 100 µM | – | > 100 µM | – | 29.7 µM | – | > 100 µM | > 100 µM | –
7 | COCC(OC)C(CC=C(C#N)C#N)OC (centres undefined) | – | > 100 µM | – | – | – | > 100 µM | – | > 100 µM | – | > 100 µM | – | > 100 µM | – | > 100 µM | – | > 100 µM | – | > 100 µM | > 100 µM | –
8 | CC1(C)COC(c2cccc3c2C(=O)c2cccc(Cl)c2-3)=N1 | – | > 100 µM | – | – | – | > 100 µM | – | – | – | > 100 µM | – | > 100 µM | – | > 100 µM | – | > 100 µM | – | > 100 µM | > 100 µM | –
9 | COC(=O)/C(=C/c1ccc(OC)cc1)C(C(=O)O)=C1CCCC1 | – | > 100 µM | – | – | – | > 100 µM | – | > 100 µM | – | > 100 µM | – | > 100 µM | – | > 100 µM | – | > 100 µM | – | > 100 µM | – | –
10 | COC(=O)C1CCCC2(C1)OCCO2 (centres undefined) | – | > 100 µM | – | – | – | > 100 µM | – | > 100 µM | – | > 100 µM | – | > 100 µM | – | > 100 µM | – | > 100 µM | – | > 100 µM | > 100 µM | –
